Where two headings read alike, the source gives them in different places. Values belong to the compound of their own block, whether it stands above or below them.
Columns and labels:
PC-3 cells [1] = assay: Sulforhodamine B cell mass assay, PC-3 cells; assay type: cell-based
Procedure: Compound cytotoxicity was determined using the Sulforhodamine B assay for cells cultured as a monolayer as described previously (45). For spheroid growth experiments, PC-3 cells were seeded (500 cells/well) into 96 well round bottom plates (Corning Costar 7007) in RPMI-1640 media containing 2.5% (w/v) Matrigel (BD Biosciences). […] Spheroid volumes were determined by obtaining diameter measurements from images taken on a Zeiss Axiovert 200M inverted microscope using the axiovision software.

[2] = test system: p(Ser^293)E1α in PC-3 cells; assay: Immunoblot time course of biomarker suppression in PC-3 cells; assay type: cell-based; settings: Fig. 2F
Procedure: Cell lysates were prepared by washing cells with PBS followed by the addition of lysis buffer (2% SDS, 50 mM TRIS-pH 6.8) directly to the well. Equal amounts of lysate were loaded onto pre-cast 4-12% SDS-PAGE gels (Life technologies) followed by transfer to PVDF membrane. The membranes were blocked for 1 h in TBST containing 5% non-fat dried milk, followed by a 2 h incubation with the relevant primary antibody: PDH phospho(Ser^293)E1α (Genescript, custom rabbit polyclonal antibody), 1:600; PDH E1α (Abcam), 1:1000; PDP-1 (Sigma), 1:2000; PDK-1 (ENZO), 1:1000; HSP-70 (Santa Cruz), 1:5000; β-tubulin (Cell signaling technology), 1:1000. The membranes were then incubated with HRP-linked goat anti-rabbit or anti-mouse secondary antibodies (Santa Cruz) followed by visualization of immunoreactive bands by the addition of a chemiluminescent substrate (Millipore).

PC-3 cells [3] = assay: Metabolite analysis (L-lactate, D-glucose, pyruvate, L-alanine) in PC-3 cells; assay type: cell-based; settings: for Reduction in media L-lactate levels: 1 h; for Intracellular pyruvate levels: 24 h
Procedure: Pyruvate, L-lactate, D-glucose and L-alanine levels were determined using commercially available assay kits (Abcam) as per the manufacturer's instructions.

[4] = test system: HSP-70 induction in PC-3 cells (biomarker for HSP-90 inhibition); assay: HSP-70 in-cell ELISA assay; assay type: cell-based; settings: for EC50: PD marker (ELISA), PC-3 cells, 24 h
Procedure: DELFIA assay reagents (assay buffer, enhancement solution and europium-labeled secondary antibody) were obtained from Perkin Elmer (MD, USA). PC-3 cells were seeded (1×10^4 per well) into 96 well black-walled cell culture plates. The following day, the cells were treated with a 10 point tripling dilution series of test compound for 24 h followed by fixation with TBS containing 4% formaldehyde for 15 min at RT. The cells were then permeabilized the addition of permeabilization buffer (TBS containing 1% triton-X-100) and a further 15 min incubation at RT. The cells were then washed 3X with TBS, followed by the addition of quenching solution (TBS containing 1% H2O2), a 20 min incubation at RT and a further 3X wash with TBS. The permeabilized cells were then incubated for 30 minutes with blocking buffer (TBS containing 5% (w/v) dried milk) followed by a 90 min incubation with HSP-70 primary antibody (ENZO; 1:1000 dilution in TBS containing 200 μg/ml BSA). The wells were then washed 3X with wash buffer (TBS containing 0.1% Tween-20), followed by the addition of europium-labeled anti-mouse secondary antibody (1:1000 in DELFIA assay buffer) and a 1 h incubation at RT. The wells were then washed 3X with wash buffer followed by the addition of enhancement solution.

HSP-90 = molecular target: T1, HSP-90 (Homo sapiens, UniProt P08238); assay: HSP-90 fluorescence polarization assay; assay type: binding; settings: read-out: HSP-90 FP, IC50
T1 construct: made in house
T1 sequence (P08238 whole entry, species assumed): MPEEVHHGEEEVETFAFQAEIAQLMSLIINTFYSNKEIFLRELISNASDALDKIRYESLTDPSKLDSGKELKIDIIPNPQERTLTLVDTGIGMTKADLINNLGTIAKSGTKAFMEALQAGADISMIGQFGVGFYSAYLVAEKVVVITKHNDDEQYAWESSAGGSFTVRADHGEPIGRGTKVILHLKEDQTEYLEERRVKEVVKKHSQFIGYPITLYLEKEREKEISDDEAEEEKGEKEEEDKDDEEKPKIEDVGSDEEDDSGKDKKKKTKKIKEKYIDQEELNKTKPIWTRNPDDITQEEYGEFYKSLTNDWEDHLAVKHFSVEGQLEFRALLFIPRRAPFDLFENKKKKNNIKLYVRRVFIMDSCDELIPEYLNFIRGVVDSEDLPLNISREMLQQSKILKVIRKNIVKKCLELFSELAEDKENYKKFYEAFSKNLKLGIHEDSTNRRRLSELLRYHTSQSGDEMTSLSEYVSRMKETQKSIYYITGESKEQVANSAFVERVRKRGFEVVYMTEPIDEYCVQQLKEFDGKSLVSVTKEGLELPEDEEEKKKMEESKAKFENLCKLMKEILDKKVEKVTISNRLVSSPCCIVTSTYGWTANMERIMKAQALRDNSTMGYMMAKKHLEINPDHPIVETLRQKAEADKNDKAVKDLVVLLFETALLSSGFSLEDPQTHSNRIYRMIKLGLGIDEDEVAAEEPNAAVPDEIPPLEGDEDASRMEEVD
Procedure: The HSP-90ß FP assay was conducted as previously described.

[5] = test system: p(Ser^293)E1α levels in PC-3 cells; assay: Phospho(Ser293) E1α MSD ELISA in PC-3 cells; assay type: cell-based; settings: for Degree of suppression of p(Ser^293)E1α levels (plateau), reduction compared to DMSO control: MSD ELISA; for IC50: Homo sapiens, PD marker (ELISA)
Procedure: Phospho(Ser^293) E1α MSD ELISA assay: All reagents were purchased from Meso Scale Discovery (Maryland, USA) unless otherwise stated. Following compound treatment, cells were treated with lysis buffer (TBS pH 7.4, 1% Tween-20, 1 mM EGTA, 1 mM EDTA, 1 mM NaF, protease and phosphatase inhibitor cocktails (Roche)) on ice and the lysates added to standard bind 96 well MSD plates which were pre-loaded with custom phospho(Ser^293)E1α ‘capture’ antibody (2 μg/ml in TBST containing 3% (w/v) blocker A) (Genescript) and blocked with 3% (w/v) blocker A, followed by a 1 h incubation at RT. The wells were then washed 3X with TBST (0.05% tween 20) followed by the addition of 2 μg/ml E1α ‘detection’ antibody (2 μg/ml) (Abcam) and a further 1 h incubation at RT. The wells were again washed 3X with TBST followed by the addition of 1 μg/ml Goat anti-mouse Sulfotag antibody, and a further TBST wash prior to the addition of 2X read buffer T. The chemiluminescent signal was then measured on a MSD sector imager 2400.

PC-3 cells [6] = assay: Oxygen consumption (oxytherm oxygen electrode); assay type: cell-based
Procedure: Oxygen consumption was measured using an ‘oxytherm’ oxygen electrode system (Hansatech). PC-3 cells were trypsinized and re-suspended to a density of 1.7×10^6cells/mL in RPMI-1640 media containing 10% FCS. Compounds or DMSO were then added to 1.5 mL aliquots of this suspension to yield the required final concentration followed by a 1 h incubation period in a CO2incubator at 37°C. The compound/vehicle treated cells were then transferred to the oxygen electrode chamber (pre-equilibrated to 37°C). Oxygen consumption was measured over a 30 minute period and the rate of oxygen consumption determined by plotting oxygen concentration against time and obtaining the slope of the line using the linear fit function within excel.

EC50 [4]: > 80 µM | IC50 (HSP-90): > 200 µM
SMILES: C[C@@H]1CN(C(=O)[C@](C)(O)C(F)(F)F)[C@@H](C)CN1C(=O)c1ccc(C#N)cc1 [Nov3r, reference compound]
Cytotoxicity/cytostasis-induction (PC-3 cells [1]; any of the culture conditions, up to a top concentration of 80 μM): no evidence of cytotoxicity/cytostasis-induction | Period of time to achieve maximal biomarker suppression [2]: 16 min | Change in media L-lactate levels (PC-3 cells [3]; PC-3, all concentrations tested, 0.25 g/L D-glucose, 2% dialyzed FCS): no change | Degree of suppression of p(Ser^293)E1α levels (plateau), reduction compared to DMSO control ([5]; PC-3 cells): approximately 60% | Effect on oxygen consumption rate (PC-3 cells [6]; concentrations ≥ 1μM (3 μM in Fig. 3B)): no discernible effect

SMILES: Cc1cnc(Cl)nc1-c1ccc(N(Cc2ccc(CNC(=O)C(F)F)cc2)C(=O)c2ccc(O)cc2O)cc1 [VER-246608]
Effect on growth in serum-free media or 0.1% serum (PC-3 cells [1]; PC-3, 20 μM, 120 h, 0% or 0.1% FCS): complete suppression of growth | Reduction in cell mass vs DMSO control (PC-3 cells [1]; PC-3, 20 μM, 120 h, D-glucose depletion with 15 mg/L L-glutamine): 50% | Reduction in growth (PC-3 cells [1]; PC-3, 20 μM, 120 h, serum depleted conditions (0.5% FCS)): 70% | Period of time to achieve maximal biomarker suppression [2]: 16 min | Reduction in media L-lactate levels (PC-3 cells [3]; PC-3, 9 μM, 0.25 g/L D-glucose, 2% dialyzed FCS): 21% | Intracellular pyruvate levels (PC-3 cells [3]; PC-3, 20 μM, D-glucose/L-glutamine and serum depleted conditions): marked reduction | Intracellular pyruvate levels (PC-3 cells [3]; PC-3, 20 μM, standard culture conditions): no change | Extracellular L-alanine levels (PC-3 cells [3]; PC-3, 20 μM, standard and low serum culture conditions): further substantial decrease | Reduction in media L-lactate levels (PC-3 cells [3]; PC-3, 27 μM, 0.25 g/L D-glucose, 2% dialyzed FCS): 42% | Extracellular L-lactate levels (PC-3 cells [3]; PC-3, 24 h, 10 and 20 μM, D-glucose/L-glutamine-depleted media): further reduction | L-lactate production vs DMSO (PC-3 cells [3]; PC-3, 24 h, normal or low serum media): not altered | Effect on D-glucose consumption (PC-3 cells [3]; PC-3, same concentrations that reduced L-lactate production (9 and 27 μM)): decreased D-glucose consumption | EC50 ([4]; Homo sapiens): > 80 µM | Induction of HSP-70 in PC-3 cells ([4]; biomarker for HSP-90 inhibition): lack of a detectable induction | IC50 (HSP-90): > 100 µM | IC50 ([5]; PC-3, read-out: p(Ser^293)E1α (10% FCS), IC50, 10% FCS): 1.45 µM | IC50 ([5]; PC-3 cells, 0% FCS, read-out: p(Ser^293)E1α (0% FCS), IC50): 0.266 µM | Reduction in p(Ser^293)E1α levels ([5]; PC-3, 10 and 20 μM, 24 h, D-glucose/L-glutamine-depleted media): > 70% | Degree of suppression of p(Ser^293)E1α levels (plateau), reduction compared to DMSO control ([5]; PC-3 cells): complete suppression | Increase in the rate of oxygen consumption (PC-3 cells [6]; 20 μM, 1 h pre-treatment): 66%

From PMC4350332 (Oncotarget, 2014)
